In patent US7910582B2, “Cyclopropyl amines as modulators of the histamine H3 receptor” (Janssen Pharmaceutica NV, priority 2005, dated 2011):
Entries after “also recorded” stand apart in the source; their conditions may differ. Read-outs that look alike come from different tables or passages of the source.

Experiments:
[1] = Measured pKa, log P and log D (determined by pION, Inc.); format: physicochemical; conditions: for pKa: read-out: pKa (meas.)
Method: Measured pKa, log P, and log D values were determined by pION, Inc. (Woburn, Mass.).

[2] = target: T1, Human H3 Receptor (Homo sapiens, UniProt Q9Y5N1); experiment: [3H]-N-Methylhistamine binding, membranes of H3 receptor-expressing SK-N-MC cells; conditions: 0.8 nM [3H]-N-methylhistamine, 60 min at 25° C., average of results; read-out: Ki
T1 construct: expressed in transfected cells
T1 sequence (Q9Y5N1 whole entry): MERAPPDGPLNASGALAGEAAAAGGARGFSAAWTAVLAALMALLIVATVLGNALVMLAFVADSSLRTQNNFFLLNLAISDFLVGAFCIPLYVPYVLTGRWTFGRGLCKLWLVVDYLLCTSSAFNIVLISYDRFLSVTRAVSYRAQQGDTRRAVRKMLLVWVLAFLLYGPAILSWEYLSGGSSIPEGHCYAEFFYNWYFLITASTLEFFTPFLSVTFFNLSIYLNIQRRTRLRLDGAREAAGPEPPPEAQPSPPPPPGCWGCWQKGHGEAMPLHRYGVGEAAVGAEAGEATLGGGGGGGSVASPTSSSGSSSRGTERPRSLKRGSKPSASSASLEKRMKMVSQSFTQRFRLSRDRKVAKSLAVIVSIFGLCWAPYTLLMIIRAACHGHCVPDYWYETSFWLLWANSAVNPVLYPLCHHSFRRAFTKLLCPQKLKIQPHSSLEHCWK
Method: (§1) Cells were grown to about 70% to 80% confluence and removed from the plate with trypsin and pelleted in a clinical centrifuge. The pellet was then re-suspended in 400 μL of complete media and transferred to an electroporation cuvette with a 0.4 cm gap between the electrodes (Bio-Rad #165-2088). One μg supercoiled H3 receptor cDNA was added to the cells and mixed gently. The voltage for the electroporation was set at 0.25 kV and the capacitance was set at 960 μF. After electroporation the cells were diluted with 10 mL of complete media and were plated onto four 10 cm dishes at the following ratios: 1:20, 1:10, 1:5, and 1:2. The cells were allowed to recover for 24 h before adding 600 μg G-418. Colonies that survived selection were grown and tested. SK-N-MC cells were used because they give efficient coupling for inhibition of adenylate cyclase. The clones that gave the most robust inhibition of adenylate cyclase in response to histamine were used for further study.
Cell pellets from histamine H3 receptor-expressing SK-N-MC cells were homogenized in 50 mM TrisHCl/0.5 mM EDTA. Supernatants from an 800 g spin were collected and were recentrifuged at 30,000 g for 30 min. Pellets were re-homogenized in 50 mM Tris/5 mM EDTA (pH 7.4). Membranes were incubated with 0.8 nM [^3H]-N-methylhistamine plus/minus test compounds for 60 min at 25° C. and were harvested by rapid filtration over GF/C glass fiber filters (pretreated with 0.3% polyethylenimine) followed by four washes with buffer. Filters were added to 5 mL of scintillation cocktail, and the signal was then counted on a liquid scintillation counter.

[3] = target: T1, Human H3 Receptor; experiment: Cyclic AMP accumulation, SK-N-MC cells with reporter construct and human H3 receptor (pA2); format: cell-based; conditions: pA2, average of results
Method: as §1, with “The pellet was then re-suspended in 400 μL of complete media and transferred to an electroporation cuvette with a 0.4 cm gap between the electrodes (Bio-Rad #165-2088).” left out, “The cells were allowed to recover for 24 h before adding 600 μg G-418.” left out
Sublines of SK-N-MC cells were created that expressed a reporter construct and the human H3 receptor.

[4] = Pharmacokinetics and bioanalysis in the rat; format: in vivo, male Sprague Dawley Rats; conditions: for AUC(0-inf): read-out: AUCINF (h-μmol/mL)
Method: One group of six male Sprague Dawley Rats (approx. 300 g body weight; three animals per time point) was used. They were group-housed, provided food and water ad libitum, and were maintained on a 12-h light and dark cycle. Animals were acclimatized for at least 7 days after receipt from the vendor prior to investigations.
For oral dosing, test compounds were formulated at 1 mg/mL in 0.5% hydroxypropyl methyl cellulose and delivered at a dose of 10 mg/kg. Citric acid salt forms (prepared as described for Example 1B) of the test compounds were used. Animals received a bolus dose of 10 mg/kg (10 mL/kg) for each compound via a 16 gauge intragastric gavage. For intravenous dosing, test compounds were formulated at 1 mg/mL in 5% dextrose in water and dosed at 1 mg/kg (1 mL/kg) with a bolus intravenous dose via a 24-gauge Terumo® Surflo® catheter in the lateral tail vein. All dosing solutions were prepared immediately prior to injection.
Blood samples (250 μL) were taken from the lateral tail vein into heparinized Natelson blood collection tubes and expelled into 1.5 mL mcirocentrifuge tubes. The blood samples were centrifuged for 5 min at 14,000 rpm in a micro-centrifuge. Plasma was retained and kept in a −20° C. freezer until analysis by LC-MS/MS.
Data analysis was performed using WinNonlin version 3.3 or 4.0.1. A non -compartmental model (#200 for Extravascular administration and #201 for i.v.) was used to determine the pharmacokinetic parameters shown in Tables 4 and 5 (NA=not applicable or not determined).

[5] = male, Sprague Dawley, iv, i.v. 1 mg/kg, citric acid salt, plasma
[6] = male, Sprague Dawley, oral 10 mg/kg, citric acid salt, plasma
[7] = oral 10 mg/kg, citric acid salt
[8] = compared with isopropyl / cyclobutyl analogs

| Compound | logD [1] | logP [1] | pKa [1] | pKa ([1]; second value) | Ki [2] [nM] | Kb [3] [nM] | CI ([4]; i.v. 1 mg/kg, citric acid salt) [mL/min/kg] | Cmax [4, 5] [nM] | AUC(0-inf) [4, 5] [µM·h] | Cmax [4, 6] [nM] | Tmax [4, 6] [h] | half-life [4, 6] [h] | AUC(0-inf) [4, 6] [µM·h] | CI [4, 7] [mL/min/kg] | Vd [4, 7] [L/kg] | further results |
| --- | --- | --- | --- | --- | --- | --- | --- | --- | --- | --- | --- | --- | --- | --- | --- | --- |
| O=C(c1ccc(CN2CCOCC2)cc1)N1CCN(C2CCC2)CC1 [Comparative Example 2, (4-Cyclobutyl-piperazin-1-yl)-(4-morpholin-4-ylmethyl-phenyl) -methanone] | 1.77 | 2.09 | 7.4 | 6.5 | 1 | 0.316 |  |  |  |  |  |  |  |  |  |  |
| CC(C)N1CCN(C(=O)c2ccc(CN3CCC(F)CC3)cc2)CC1.O=C(O)CC(O)(CC(=O)O)C(=O)O [Comparative Example 3B, [4-(4-Fluoro-piperidin-1-ylmethyl)-phenyl]-(4-isopropyl-piperazin-1-yl)-methanone citrate salt] |  |  |  |  | 1 | 0.251 | 44.2 | 1490 | 1.16 | 160 | 1.33 | 8.22 | 1.95 | 270 | 180 | Vd ([4]; i.v. 1 mg/kg, citric acid salt): 29.2 L/kg; T1/2 ([4]; i.v. 1 mg/kg, citric acid salt, plasma): 7.60 h |
| O=C(c1ccc(CN2CCC(F)CC2)cc1)N1CCN(C2CCC2)CC1 [Comparative Example 4, (4-Cyclobutyl-piperazin-1-yl)-[4-(4-fluoro-piperidin-1-ylmethyl)-phenyl]-methanone] |  |  |  |  | 0.7 | 0.1 |  |  |  |  |  |  |  |  |  |  |
| CC(C)N1CCN(C(=O)c2ccc(CN3CCOC(CO)C3)cc2)CC1 (stereo not drawn) [Comparative Example 6, [4-(2-Hydroxymethyl-morpholin-4-ylmethyl)-phenyl]-(4-isopropyl-piperazin-1-yl)-methanone] |  |  |  |  | 6 | 6.31 |  |  |  |  |  |  |  |  |  |  |
| O=C(c1ccc(CN2CCOCC2)cc1)N1CCN(C2CC2)CC1 [Example 1, (4-Cyclopropyl-piperazin-1-yl)-(4-morpholin-4-ylmethyl-phenyl) -methanone] | 0.86 | 0.89 | 6.5 | 5.3 | 5.4 | 3.98 |  |  |  |  |  |  |  |  |  | measured pKa (basicity) relative to calculated value and to isopropyl / cyclobutyl amine analogs [1]: significantly lower; also recorded: significant decrease in basicity |
| O=C(O)CC(O)(CC(=O)O)C(=O)O.O=C(c1ccc(CN2CCC(F)CC2)cc1)N1CCN(C2CC2)CC1 [Example 2B, (4-Cyclopropyl-piperazin-1-yl)-[4-(4-fluoro-piperidin-1-ylmethyl)-phenyl]-methanone citrate salt] |  |  |  |  | 2 | 1 | 41.4 | 3780 | 1.37 | 420 | 1.67 | 2.72 | 1.91 | 431 | 112 | half-life (T1/2) relative to the comparative examples [4, 8]: shorter T1/2; volume of distribution (Vd) relative to the comparative examples [4, 8]: lower Vd; half-life [4, 5]: 1.11 h; Vd ([4]; male, Sprague Dawley, plasma, iv, i.v. 1 mg/kg, citric acid salt, read-out: Vd): 3.94 L/kg |
